According to patent US20250352615A1, “COMPOSITIONS AND METHODS FOR THE MODULATION OF PIEZO1 AND TRPV4” (Duke University, priority 2021, published 2025):

Key:
Piezo1 = target: T1, Piezo1 (Homo sapiens, UniProt Q92508); test: Calcium imaging of Piezo1-mediated [Ca2+]i in human PSCs; format: cell-based; conditions: Yoda1 25 μM, quiescent PSCs
T1 construct: Fresh, human pancreatic tissue was digested with collagenase as described above with modifications; endogenous in cells; host or cells: primary human pancreatic stellate cells from fresh human pancreatic tissue
Protocol: Mouse and human PSCs were isolated using collagenase digestion. Modified Krebs Henseleit Buffer (KHB) solution (100 mL) was prepared as previously described by Romac et al., Nat. Commun. 9(1):1715 (2018). Pancreatic tissue was digested with 2 mg of collagenase NB 8 (SERVA, catalog 17456) dissolved in 10 mL of modified KHB solution containing 1 mg soybean trypsin inhibitor (SBTI 1-S; Millipore Sigma, catalog T9003) and 20 mg BSA (Thermo Fisher Scientific; BP1600-100). Digestion solution (5 mL) was used to inflate the pancreas. Pancreas with 5 mL of digestion solution was incubated in a shaking water bath for 10 minutes at 37° C. The solution was then discarded. The pancreas tissue was cut into small pieces and digested with fresh 5 mL digestion buffer. Tissue was incubated in a shaking water bath for 40 minutes at 37° C. The cells were then separated from tissue by pipetting up-down with a 10 mL pipette and passed sequentially through a 70 μm and a 40 μm cell strainer. The filtrate was centrifuged at 150×g for 3 minutes at room temperature. The cells were washed with 10 mL Leibovitz's media (Thermo Fisher Scientific, catalog 11415-064), passed through a 20 μm filter, and centrifuged at 80×g for 3 minutes at room temperature. The supernate was removed, and isolated stellate cells were plated on a thin-layered Matrigel-coated glass bottom culture plate (MatTek, P35G-0-14-C). […] The cell viability following Yoda1 treatment was analyzed using the Live/Dead cell imaging kit (Thermo Fisher Scientific, catalog R37601). […]
Fluid shear stress and mechanical pushing applied to stellate cells were achieved as previously described by Wang et al., J. Clin. Invest. […] The fluid shear stress (T) was calculated using the formula: τ=η×[…] φ for μ-Slide I 0.4 Luer and τ=η×330.4 φ for μ-Slide I 0.2 Luer, where r represents viscosity of the medium and φ represents flow rate (according to the manufacturer's instructions, Ibidi). […]

pancreas = test: Yoda1 pancreatic duct infusion pancreatitis model; format: in vivo, mouse; conditions: Yoda1 0.4 mg/kg infused into the pancreatic duct
Protocol: Laparotomy surgery was performed both in pancreatic partial duct ligation- and retrograde pancreatic duct infusion-mediated pancreatitis experiments as previously described by Romac et al., Nat. Commun. 9(1):1715 (2018). Yoda1 at a dose of 0.4 mg/kg in 50 μL 1.1% dimethylsulfoxide, 4.8% ethanol, and 94.1% buffered saline was injected. In Yoda1-mediated pancreatitis, the midportion of the pancreas (about 100-125 mg) was carefully excised and used for biochemical assays and histological staining. Histological scoring was evaluated from the entire section. Partial PDL was performed as previously described. Using a stereo microscope, the tail region of the pancreas was visualized, and the main pancreatic duct was ligated carefully with 6-0 Prolene suture without damaging the left portal vein that separates the splenic lobe and gastroduodenal part of the pancreas. […]
Serum amylase concentration was measured by a colorimetric method after reaction with substrate using the Phadebas Amylase Test Tablet (Magle Life Sciences) and the Tecan-infinite M200 Pro plate reader.
MPO was measured using previously described methods with modifications. […] To calculate the mU of MPO/mg of protein, the protein concentrations of the supernatants were measured using the Micro BCA Protein Assay Kit (Thermo Fisher Scientific; 23235). […]

T1 sequence (Q92508 whole entry): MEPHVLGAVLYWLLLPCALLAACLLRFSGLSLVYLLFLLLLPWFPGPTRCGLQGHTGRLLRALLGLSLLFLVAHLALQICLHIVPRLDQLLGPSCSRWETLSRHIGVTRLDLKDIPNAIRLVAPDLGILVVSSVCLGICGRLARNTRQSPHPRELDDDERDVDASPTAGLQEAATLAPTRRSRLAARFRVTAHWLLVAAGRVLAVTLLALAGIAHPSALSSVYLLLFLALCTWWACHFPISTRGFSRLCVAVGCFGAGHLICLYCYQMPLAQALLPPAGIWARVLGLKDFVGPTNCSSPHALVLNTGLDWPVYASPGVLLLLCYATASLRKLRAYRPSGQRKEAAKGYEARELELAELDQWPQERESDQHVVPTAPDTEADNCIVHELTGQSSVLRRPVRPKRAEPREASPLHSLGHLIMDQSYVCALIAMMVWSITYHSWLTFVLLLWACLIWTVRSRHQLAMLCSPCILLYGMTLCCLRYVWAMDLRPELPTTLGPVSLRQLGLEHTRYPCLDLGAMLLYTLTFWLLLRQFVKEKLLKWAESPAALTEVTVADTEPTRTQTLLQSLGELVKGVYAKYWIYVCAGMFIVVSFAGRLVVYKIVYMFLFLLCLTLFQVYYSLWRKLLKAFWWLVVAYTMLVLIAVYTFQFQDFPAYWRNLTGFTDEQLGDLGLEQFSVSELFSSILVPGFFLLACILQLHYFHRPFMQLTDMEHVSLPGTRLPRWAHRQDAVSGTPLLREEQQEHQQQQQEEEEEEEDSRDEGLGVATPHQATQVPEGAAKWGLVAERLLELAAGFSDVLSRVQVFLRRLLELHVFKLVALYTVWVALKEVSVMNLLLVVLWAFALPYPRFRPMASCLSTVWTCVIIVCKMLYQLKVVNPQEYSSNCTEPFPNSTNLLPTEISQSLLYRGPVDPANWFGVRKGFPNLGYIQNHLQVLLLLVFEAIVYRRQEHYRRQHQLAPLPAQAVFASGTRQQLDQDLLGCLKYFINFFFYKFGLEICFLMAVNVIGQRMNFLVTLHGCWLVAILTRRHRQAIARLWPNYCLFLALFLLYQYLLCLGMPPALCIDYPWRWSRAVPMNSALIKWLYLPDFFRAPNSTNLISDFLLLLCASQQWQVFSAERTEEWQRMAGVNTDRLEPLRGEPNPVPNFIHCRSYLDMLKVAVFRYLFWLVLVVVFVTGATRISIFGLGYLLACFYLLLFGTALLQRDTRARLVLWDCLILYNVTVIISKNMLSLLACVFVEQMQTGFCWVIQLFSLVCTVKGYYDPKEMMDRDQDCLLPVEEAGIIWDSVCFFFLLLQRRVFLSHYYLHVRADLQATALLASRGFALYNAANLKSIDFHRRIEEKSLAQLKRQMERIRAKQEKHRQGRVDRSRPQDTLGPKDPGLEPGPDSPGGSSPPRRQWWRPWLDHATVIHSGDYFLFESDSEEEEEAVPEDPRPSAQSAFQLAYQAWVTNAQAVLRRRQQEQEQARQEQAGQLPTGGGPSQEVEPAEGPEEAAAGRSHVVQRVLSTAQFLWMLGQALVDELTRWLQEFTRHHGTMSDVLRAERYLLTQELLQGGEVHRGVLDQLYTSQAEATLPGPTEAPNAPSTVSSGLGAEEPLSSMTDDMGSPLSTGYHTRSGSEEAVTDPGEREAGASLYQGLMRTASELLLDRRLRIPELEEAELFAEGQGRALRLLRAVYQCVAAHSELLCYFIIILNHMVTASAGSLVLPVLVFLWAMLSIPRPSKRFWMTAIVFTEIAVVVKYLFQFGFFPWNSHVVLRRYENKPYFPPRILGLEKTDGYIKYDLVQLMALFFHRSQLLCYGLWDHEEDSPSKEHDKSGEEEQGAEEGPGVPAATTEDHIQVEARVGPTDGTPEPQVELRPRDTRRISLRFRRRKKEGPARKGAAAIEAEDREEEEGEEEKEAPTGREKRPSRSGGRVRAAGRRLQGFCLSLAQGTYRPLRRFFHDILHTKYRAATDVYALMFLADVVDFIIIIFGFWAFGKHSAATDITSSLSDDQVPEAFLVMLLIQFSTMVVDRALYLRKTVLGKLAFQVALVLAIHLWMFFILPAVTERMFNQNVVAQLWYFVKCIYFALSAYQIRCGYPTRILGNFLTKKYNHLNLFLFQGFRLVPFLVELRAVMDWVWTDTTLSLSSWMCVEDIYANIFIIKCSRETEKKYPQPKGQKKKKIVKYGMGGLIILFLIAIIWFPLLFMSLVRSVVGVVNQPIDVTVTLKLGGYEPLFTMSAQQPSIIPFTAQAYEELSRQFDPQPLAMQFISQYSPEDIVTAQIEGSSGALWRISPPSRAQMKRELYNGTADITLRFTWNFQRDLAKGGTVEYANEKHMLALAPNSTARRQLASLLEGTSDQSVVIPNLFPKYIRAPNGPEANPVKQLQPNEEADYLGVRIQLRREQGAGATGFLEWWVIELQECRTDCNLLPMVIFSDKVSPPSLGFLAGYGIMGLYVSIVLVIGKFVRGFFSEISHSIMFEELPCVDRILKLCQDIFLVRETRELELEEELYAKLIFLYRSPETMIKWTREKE

Clc1cccc(Cl)c1CSc1nnc(-c2cnccn2)s1 [Yoda1]
[Ca2+]i response to Yoda1 (Piezo1): caused calcium overload in quiescent pancreatic stellate cells
pancreatitis in TRPV4-KO mice (pancreas): did not cause pancreatitis in TRPV4-KO mice
pancreatitis parameters (pancreatic edema, serum amylase, pancreatic MPO, histological scoring) (pancreas; WT mice): increased all pancreatitis parameters measured
